# Reference: patent US20130203602A1, “SUPPORTED BIOLOGICALLY ACTIVE COMPOUNDS” (Danmarks Tekniske Universitet, priority 2010, published 2013)
# Marks after values point to notes of the source that are not given here.
# Assay: Thermal stability determination by thermogravimetric analysis (TGA)
# Assay type: physicochemical
# Conditions: for temperature at which it starts to decompose: heated neat; for T5% onset temperature / Inflection point: not supported/neat; for T5% onset temperature: TGA 5° C./min, under nitrogen; for Inflection point: TGA 25-800° C., 5° C./min, under air
Compound,Inflection point [°C],further results
"CC(C)Cc1ccc(C(C)C(=O)O)cc1 (stereo not shown) [Ibuprofene, reference compound]",,temperature at which it starts to decompose: around 150 °C; T5% onset temperature: 155* ° C.
CC(C)Cc1ccc(C(C)C(=O)O)cc1 (stereo not shown) [Tetrabutylphosphonium Ibuprofenate [7]],,T5% onset temperature: 236* ° C.
"CC(C)Cc1ccc(C(C)C(=O)O)cc1.CCN(CC)CC(=O)Nc1c(C)cccc1C [[8], Lidocainium Ibuprofenate]",,"T5%onset (neat compound, given with the synthesis example): 177 °C"
Itraconazolium Dioctylsulfosuccinate [Itraconazolium Dioctylsulfosuccinate [5]],257,
Tributylmethylammonium Acyclovir [Tributylmethylammonium Acyclovir [2]],203,
"O=C(O)CNCP(=O)(O)O [Tetraethylammonium Glyphosate [6], Tetraethylammonium Glyphosate]",150,
Nc1nc2c(ncn2COCCO)c(=O)[nH]1 [Trimethylhexadecylammonium acyclovir [3]] [Trimethylhexadecylammonium Aciclovir],189,
"Nc1nc2c(ncn2COCCO)c(=O)[nH]1 [Acyclovir, reference compound]",249,temperature at which it starts to decompose: around 249 °C
